Experimental data from ChEMBL document CHEMBL1146813, “Synthesis and antibacterial activity of novel bifunctional macrolides” (2004).
Values after ≈ are worked out from the molar mass of the structure shown.

Key:
Format in all cases: functional
Streptococcus pneumoniae [1] = assay: In vitro antibacterial activity against Streptococcus pneumoniae 5979 (MLSB resistant stain bearing an erm (B) gene)
Streptococcus pneumoniae [2] = assay: In vitro antibacterial activity against Streptococcus pneumoniae 5649 (efflux-resistant strain bearing a mef (E) gene)
Streptococcus pneumoniae [3] = assay: In vitro antibacterial activity against Streptococcus pneumoniae ATCC 6303 (an erythromycin-susceptible strain)
Staphylococcus aureus [4] = assay: In vitro antibacterial activity against Staphylococcus aureus NCTC 10649 (erythromycin-susceptible strain)
Haemophilus influenzae = assay: In vitro antibacterial activity against Haemophilus influenzae GYR1435 (fully susceptible strain)
Staphylococcus aureus [5] = assay: In vitro antibacterial activity against Staphylococcus aureus 1775 (methicillin-resistant strain(MRSA))

Compound | MIC (Streptococcus pneumoniae [1]) [µg/mL] | MIC (Streptococcus pneumoniae [2]) [µg/mL] | MIC (Streptococcus pneumoniae [3]) [µg/mL] | MIC (Staphylococcus aureus [4]) [µg/mL] | MIC (Haemophilus influenzae) [µg/mL] | MIC (Staphylococcus aureus [5]) [µg/mL]
CC[C@H]1OC(=O)[C@H](C)C(=O)[C@H](C)[C@@H](O[C@@H]2O[C@H](C)C[C@H](N(C)C)[C@H]2O)[C@@](C)(OC)C[C@@H](C)/C(=N\OCCNCCCOCCCNCc2cnc3ccccc3c2)[C@H](C)[C@@H](O)[C@]1(C)O | 0.25 (≈ 0.277 µM) | 0.5 (≈ 0.554 µM) | 0.06 (≈ 0.0665 µM) | 0.5 (≈ 0.554 µM) | 64 (≈ 70.9 µM) | > 128
CC[C@H]1OC(=O)[C@H](C)C(=O)[C@H](C)[C@@H](O[C@@H]2O[C@H](C)C[C@H](N(C)C)[C@H]2O)[C@@](C)(OC)C[C@@H](C)/C(=N\OCCNCCCCNCc2ccc(Oc3ccccc3)cc2)[C@H](C)[C@@H](O)[C@]1(C)O | 0.5 (≈ 0.556 µM) | 0.25 (≈ 0.278 µM) | 0.015 (≈ 0.0167 µM) | 16 (≈ 17.8 µM) | 16 (≈ 17.8 µM) | 32 (≈ 35.6 µM)
CC[C@H]1OC(=O)[C@H](C)C(=O)[C@H](C)[C@@H](O[C@@H]2O[C@H](C)C[C@H](N(C)C)[C@H]2O)[C@@](C)(OC)C[C@@H](C)/C(=N\OCCNCC2CCC(CNCc3cccc(Oc4ccccc4)c3)CC2)[C@H](C)[C@@H](O)[C@]1(C)O (stereo not given in full) | 2 (≈ 2.1 µM) | 0.12 (≈ 0.126 µM) | ≤ 0.008 | 4 (≈ 4.2 µM) | 8 (≈ 8.39 µM) | 64 (≈ 67.1 µM)
CC[C@H]1OC(=O)[C@H](C)C(=O)[C@H](C)[C@@H](O[C@@H]2O[C@H](C)C[C@H](N(C)C)[C@H]2O)[C@](C)(OCC=Cc2cnc3ccccc3c2)C[C@@H](C)C(=O)[C@H](C)[C@H]2NC(=O)O[C@@]21C [CETHROMYCIN] | ≤ 0.008 | ≤ 0.008 | ≤ 0.008 | 0.12 (≈ 0.157 µM) | 0.5 (≈ 0.653 µM) | > 128
CC[C@H]1OC(=O)[C@H](C)C(=O)[C@H](C)[C@@H](O[C@@H]2O[C@H](C)C[C@H](N(C)C)[C@H]2O)[C@@](C)(OC)C[C@@H](C)/C(=N\OCCNCCCOCCOCCCNc2ccc(Oc3ccccc3)cc2)[C@H](C)[C@@H](O)[C@]1(C)O | 2 (≈ 2.05 µM) | 1 (≈ 1.03 µM) | 0.12 (≈ 0.123 µM) | 2 (≈ 2.05 µM) | 64 (≈ 65.8 µM) | 128 (≈ 132 µM)
CC[C@H]1OC(=O)[C@H](C)[C@@H](O[C@H]2C[C@@](C)(OC)[C@@H](O)[C@H](C)O2)[C@H](C)[C@@H](O[C@@H]2O[C@H](C)C[C@H](N(C)C)[C@H]2O)[C@](C)(O)C[C@@H](C)C(=O)[C@H](C)[C@@H](O)[C@]1(C)O [ERYTHROMYCIN] | > 128 | 4 (≈ 5.45 µM) | 0.03 (≈ 0.0409 µM) | 0.25 (≈ 0.341 µM) | 2 (≈ 2.73 µM) | > 128
CC[C@H]1OC(=O)[C@H](C)C(=O)[C@H](C)[C@@H](O[C@@H]2O[C@H](C)C[C@H](N(C)C)[C@H]2O)[C@@](C)(OC)C[C@@H](C)C(=O)[C@H](C)[C@@H](O)[C@]1(C)O | > 128 | 0.12 (≈ 0.204 µM) | 0.06 (≈ 0.102 µM) | 0.5 (≈ 0.851 µM) | 64 (≈ 109 µM) | > 128
C=CC(C)C(=O)NCCNC(=O)O[C@H]1[C@H](C)[C@@H](O[C@@H]2O[C@H](C)C[C@H](N(C)C)[C@H]2O)[C@@](C)(OC)C[C@@H](C)C(=O)[C@H](C)[C@H]2NC(=O)O[C@]2(C)[C@@H](CC)OC(=O)[C@@H]1C (stereo not given in full) | > 128 |  | 0.25 (≈ 0.319 µM) | 64 (≈ 81.7 µM) | 128 (≈ 163 µM) | > 128
CC[C@H]1OC(=O)[C@H](C)[C@@H](OC(=O)NCCCOCCCNC(=O)Cc2ccc(OC)cc2)[C@H](C)[C@@H](O[C@@H]2O[C@H](C)C[C@H](N(C)C)[C@H]2O)[C@@](C)(OC)C[C@@H](C)C(=O)[C@H](C)[C@H]2NC(=O)O[C@@]21C | > 128 | 0.5 (≈ 0.543 µM) | 0.5 (≈ 0.543 µM) | 8 (≈ 8.68 µM) | 16 (≈ 17.4 µM) | > 128
CC[C@H]1OC(=O)[C@H](C)C(=O)[C@H](C)[C@@H](O[C@@H]2O[C@H](C)C[C@H](N(C)C)[C@H]2O)[C@@](C)(OC)C[C@@H](C)/C(=N\OCCNCCCOCCOCCOCCCNc2ccc(Oc3ccccc3)cc2)[C@H](C)[C@@H](O)[C@]1(C)O | 2 (≈ 1.97 µM) | 1 (≈ 0.983 µM) | 0.25 (≈ 0.246 µM) | 2 (≈ 1.97 µM) | 32 (≈ 31.5 µM) | 128 (≈ 126 µM)
CC[C@H]1OC(=O)[C@H](C)C(=O)[C@H](C)[C@@H](O[C@@H]2O[C@H](C)C[C@H](N(C)C)[C@H]2O)[C@@](C)(OC)C[C@@H](C)/C(=N\OCCNCCCCCCNCc2cccc(Oc3ccccc3)c2)[C@H](C)[C@@H](O)[C@]1(C)O | 0.12 (≈ 0.129 µM) | 0.5 (≈ 0.539 µM) | ≤ 0.008 | 2 (≈ 2.16 µM) | 4 (≈ 4.31 µM) | 64 (≈ 69 µM)
CC[C@H]1OC(=O)[C@H](C)C(=O)[C@H](C)[C@@H](O[C@@H]2O[C@H](C)C[C@H](N(C)C)[C@H]2O)[C@@](C)(OC)C[C@@H](C)/C(=N\OCCNCCCOCCCNCc2ccc(Oc3ccccc3)cc2)[C@H](C)[C@@H](O)[C@]1(C)O | 0.06 (≈ 0.0636 µM) | ≤ 0.008 | ≤ 0.008 | 2 (≈ 2.12 µM) | 2 (≈ 2.12 µM) | 64 (≈ 67.9 µM)
CC[C@H]1OC(=O)[C@H](C)C(=O)[C@H](C)[C@@H](O[C@@H]2O[C@H](C)C[C@H](N(C)C)[C@H]2O)[C@@](C)(OC)C[C@@H](C)/C(=N\OCCNCCCOCCCNCc2cc(Cl)cc(Cl)c2)[C@H](C)[C@@H](O)[C@]1(C)O | 4 (≈ 4.35 µM) | 0.015 (≈ 0.0163 µM) | ≤ 0.008 | 1 (≈ 1.09 µM) | 8 (≈ 8.7 µM) | > 128
CC[C@H]1OC(=O)[C@H](C)C(=O)[C@H](C)[C@@H](O[C@@H]2O[C@H](C)C[C@H](N(C)C)[C@H]2O)[C@@](C)(OC)C[C@@H](C)/C(=N\OCCNCCCOCCCNCc2cn(C)c3ccc(F)cc23)[C@H](C)[C@@H](O)[C@]1(C)O | 4 (≈ 4.34 µM) | 0.06 (≈ 0.0651 µM) | ≤ 0.008 | 1 (≈ 1.08 µM) | 8 (≈ 8.68 µM) | 64 (≈ 69.4 µM)
CC[C@H]1OC(=O)[C@H](C)C(=O)[C@H](C)[C@@H](O[C@@H]2O[C@H](C)C[C@H](N(C)C)[C@H]2O)[C@@](C)(OC)C[C@@H](C)/C(=N\OCCNCCCOCCCNCc2ccccc2)[C@H](C)[C@@H](O)[C@]1(C)O | 1 (≈ 1.17 µM) | 0.25 (≈ 0.294 µM) | 0.12 (≈ 0.141 µM) | 16 (≈ 18.8 µM) | 128 (≈ 150 µM) | ≥ 128
CC[C@H]1OC(=O)[C@H](C)C(=O)[C@H](C)[C@@H](O[C@@H]2O[C@H](C)C[C@H](N(C)C)[C@H]2O)[C@@](C)(OC)C[C@@H](C)/C(=N\OCCNCCCOCCCNCc2ccc(Cl)c(Cl)c2)[C@H](C)[C@@H](O)[C@]1(C)O | 0.25 (≈ 0.272 µM) | 0.5 (≈ 0.543 µM) | 0.06 (≈ 0.0652 µM) | 2 (≈ 2.17 µM) | 16 (≈ 17.4 µM) | > 128
CC[C@H]1OC(=O)[C@H](C)C(=O)[C@H](C)[C@@H](O[C@@H]2O[C@H](C)C[C@H](N(C)C)[C@H]2O)[C@@](C)(OC)C[C@@H](C)/C(=N\OCCNCCCNCc2ccc(Oc3ccccc3)cc2)[C@H](C)[C@@H](O)[C@]1(C)O | 32 (≈ 36.2 µM) | 1 (≈ 1.13 µM) | 0.12 (≈ 0.136 µM) | 32 (≈ 36.2 µM) | 13 (≈ 14.7 µM) | 64 (≈ 72.3 µM)
CC[C@H]1OC(=O)[C@H](C)C(=O)[C@H](C)[C@@H](O[C@@H]2O[C@H](C)C[C@H](N(C)C)[C@H]2O)[C@@](C)(OC)C[C@@H](C)/C(=N\OCCNCCCOCCCCOCCCNCc2ccc3ccccc3c2)[C@H](C)[C@@H](O)[C@]1(C)O | 1 (≈ 1.03 µM) | 1 (≈ 1.03 µM) | 0.12 (≈ 0.123 µM) | 32 (≈ 32.9 µM) | 32 (≈ 32.9 µM) | > 128
CC[C@H]1OC(=O)[C@H](C)C(=O)[C@H](C)[C@@H](O[C@@H]2O[C@H](C)C[C@H](N(C)C)[C@H]2O)[C@@](C)(OC)C[C@@H](C)/C(=N\OCCNCC2CCC(CNCc3ccc(Oc4ccccc4)cc3)CC2)[C@H](C)[C@@H](O)[C@]1(C)O (stereo not given in full) | 0.06 (≈ 0.0629 µM) | 0.12 (≈ 0.126 µM) | 0.06 (≈ 0.0629 µM) | 4 (≈ 4.2 µM) | 8 (≈ 8.39 µM) | 32 (≈ 33.6 µM)
CC[C@H]1OC(=O)[C@H](C)C(=O)[C@H](C)[C@@H](O[C@@H]2O[C@H](C)C[C@H](N(C)C)[C@H]2O)[C@](C)(OC)C[C@@H](C)C(=O)[C@H](C)[C@H]2N(CCCCn3cnc(-c4cccnc4)c3)C(=O)O[C@]12C [TELITHROMYCIN] | 0.06 (≈ 0.0739 µM) | 0.25 (≈ 0.308 µM) | ≤ 0.008 | 0.06 (≈ 0.0739 µM) | 2 (≈ 2.46 µM) | > 128
CC[C@H]1OC(=O)[C@H](C)C(=O)[C@H](C)[C@@H](O[C@@H]2O[C@H](C)C[C@H](N(C)C)[C@H]2O)[C@@](C)(OC)C[C@@H](C)/C(=N\OCCNCCCCCCNCc2ccc(OC)cc2)[C@H](C)[C@@H](O)[C@]1(C)O | 2 (≈ 2.31 µM) | 0.12 (≈ 0.139 µM) | ≤ 0.008 | 1 (≈ 1.16 µM) | 4 (≈ 4.62 µM) | > 128
